“And” between values parts separate entries of the source, which are not always exact repeats. Identical values can stand only once. Like-named read-outs stand apart in the source and are kept apart here.
What was measured:
tubulin polymerization = settings: cited from earlier work
[1] = test system: cell proliferation/growth; experiment: combined treatment with KX01 and tazarotene, inhibition of cell proliferation/growth; type: cell-based
Description: Examples of suitable retinoids include retinol, retinal, retinoic acid isotretinoin, alitreninoin, etretinate, acitretin, adapalene, bexarotene, and/or tazarotene. FIGS. 7 and 8 show the effects of tazarotene on growth of cells in culture, including CCD-1106 KERTr keratinocytes (FIG. 7) and A431 cells (epidermoid cells obtained from a human squamous cell carcinoma, FIG. 8).

SRC-kinase = SRC-kinase (Homo sapiens, UniProt P12931); settings: cited from earlier work
[2] = test system: human keratinocyte cell line; experiment: combinatorial dose response surface study of cell viability (PSI), KX01 and calcipotriol; type: cell-based; settings: model estimate
Description: FIG. 6: Dose response surface of cell viability versus calcipotriol concentration versus KX01 concentration. Synergistic combinations of calcipotriol and KX01 are below the surface of additivity (indicating enhanced inhibition of growth), and antagonistic combinations are above the surface of additivity (indicative of reduced inhibition of growth). Individual dose response curves for KX01 and calcipotriol as determined above can be used to generate dose response surfaces representative of the additive effects of these compounds on keratinocyte growth. […] A PSI value of 1 corresponds to an additive effect. A PSI value of less than 1 indicates a synergistic effect, and a PSI value of greater than 1 indicates an antagonistic effect. Cell viability was measured in a number of experiments. In Experiment 1, the concentrations of calcipotriol were: 0, 3, 9, 27, 81, and 243 nM, and the concentrations of KX01 were: 0, 5, 10, 20, 40, 60, 80, and 160 nM. In Experiment 2, the concentrations of calcipotriol were: 0, 5, 10, 20, 40, 80, 160, 320, and 1280 nM, and the concentrations of KX01 were: 1, 3, 9, 27, and 81 nM. […] It is notable that unexpected synergy is observed across a range of concentrations and combinations. Tables 7, 8, and 9 show the results for determination of individual IC50 and maximum inhibitory concentration values for KX01 and calcipotriol, as well as the PSI value for the drug combination. […]

apoptosis by G2/M arrest = settings: cited from earlier work
[3] = test system: squamous cell human carcinoma cell line (SCC A431); experiment: MTT cell proliferation assay, 72 hours, dark or blue light, squamous cell carcinoma; type: cell-based; settings: for inhibition at 0.02 µM / inhibition at 0.04 µM / inhibition at 0.08 µM / inhibition at 0.01 µM: Homo sapiens, read-out: growth inhibition relative to untreated control
Procedure: The effects of combined treatment with KX01, a vitamin D derivative, and/or blue/UV light exposure were characterized using a cell proliferation assay. Cell proliferation was assessed by using an MTT assay. Cells were seeded in 96-well plate (3,000-5,000 cells per well) and treated with test compounds at varying concentrations (e.g. KX01: 5 to 80 nM; calcipotriol 5 to 1,280 nM) for 72 hours, either in the dark or exposed to blue light irradiation (for 2, 4, or 6 hours). To each well, 10 μl of 3-(4,5-dimethylthiazol-2-yl)-2,5-diphenyltetrazolium bromide (MTT) (RPI Corporation™) solution (5 mg/ml in PBS) was added and incubated at 37° C. for 3 hours. Next, 100 μl of 20% SDS was added to each well. After overnight incubation at 37° C., the absorbance in each well was measured at 570 nm in a microplate reader (Molecular Devices™). The cell growth curve and GI50s were calculate using GraphPad Prism™ 5 software. Similar studies were performed using a squamous cell carcinoma cell line (SCC A431). Tables 19 and 20 show the results of cell growth inhibition studies (expressed as a percentage relative to control cell growth) for treatment with either KX01 or calcipotriol in combination with exposure to blue light. […] The percentage of growth inhibition relative to untreated control is shown. Tables 21 to 24 show the effects of combined treatment with KX01, calcipotriol, and exposure to blue light at 0 hours, 2 hours, 4 hours, and 6 hours of light exposure (respectively) on human squamous cell carcinoma cells. Values are expressed as the percentage of growth inhibition relative to cells grown under control conditions (0 hours blue light, [KX01]=0, [calcipotriol]=0). The percentage of growth inhibition relative to an untreated control is shown. […] Results are shown below in Tables 31 and 32, which show results for KX01 and calcipotriol (respectively). Values are expressed as the percentage of growth inhibition relative to cells grown under control conditions (0 hours blue light, [KX01]=0, [calcipotriol]=0). […] Results are shown below in Tables 33 to Table 36, which show results from 0, 2, 4, and 6 hours of blue light exposure (respectively). Values are expressed as the percentage of growth inhibition relative to cells grown under control conditions (0 hours blue light, [KX01]=0, [calcipotriol]=0).

SRC-kinase, sequence (P12931 whole entry): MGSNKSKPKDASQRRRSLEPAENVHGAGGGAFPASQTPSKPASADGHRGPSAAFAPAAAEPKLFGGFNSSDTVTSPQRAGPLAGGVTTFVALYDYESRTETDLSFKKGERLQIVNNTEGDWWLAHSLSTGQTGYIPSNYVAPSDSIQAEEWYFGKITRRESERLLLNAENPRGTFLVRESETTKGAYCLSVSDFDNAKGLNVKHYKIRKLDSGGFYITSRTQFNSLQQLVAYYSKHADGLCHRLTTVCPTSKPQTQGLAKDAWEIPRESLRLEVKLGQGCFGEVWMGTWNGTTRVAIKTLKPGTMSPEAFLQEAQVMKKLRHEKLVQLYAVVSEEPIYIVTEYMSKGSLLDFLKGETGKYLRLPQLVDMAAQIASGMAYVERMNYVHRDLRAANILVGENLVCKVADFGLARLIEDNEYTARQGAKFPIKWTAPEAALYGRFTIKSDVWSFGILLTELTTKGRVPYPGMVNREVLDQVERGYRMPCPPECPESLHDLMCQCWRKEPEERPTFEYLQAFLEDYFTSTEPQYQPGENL

For `O=C(Cc1ccc(-c2ccc(OCCN3CCOCC3)cc2)cn1)NCc1ccccc1` [KX01, N-benzyl-2-(5-{4-[2-(morpholine-4-yl)ethoxy]phenyl}pyridine-2-yl)acetamide], the “inhibition of tubulin polymerization” value (tubulin polymerization) is given as “inhibits tubulin polymerization”, the H [1] is given as 3.3 and the IC50 [1] is given as 45 nM. For the same molecule, the Imax [1] was 0.92, the SRC-kinase inhibition (SRC-kinase) was “inhibit SRC-kinase” and the IC50 ([2]; Homo sapiens, Keratinocyte) was 41.3 nM. The IC50 [2] was 32.8 nM and 47 nM, the “Max Inhibition” value [2] was 0.856 and 0.77 and 0.741 and the induction of apoptosis (apoptosis by G2/M arrest) was “induces apoptosis by G2/M arrest”. It also gave an inhibition at 0.02 µM ([3]; A-431, 0 h, KX01 20 nM, blue light 0 h) of 99%, an inhibition at 0.04 µM ([3]; A-431, 0 h, KX01 40 nM, blue light 0 h) of 99% and an inhibition at 0.08 µM ([3]; A-431, 0 h, KX01 80 nM, blue light 0 h) of 99%. For the same molecule, the inhibition at 0.01 µM ([3]; A-431, 2 h, KX01 10 nM, blue light 2 h) was 40%, the inhibition at 0.02 µM ([3]; A-431, 2 h, KX01 20 nM, blue light 2 h) was 97% and the inhibition at 0.04 µM ([3]; A-431, 2 h, KX01 40 nM, blue light 2 h) was 97%. It also gave an inhibition at 0.08 µM ([3]; A-431, 2 h, KX01 80 nM, blue light 2 h) of 95%, an inhibition at 0.01 µM ([3]; A-431, 4 h, KX01 10 nM, blue light 4 h) of 66% and an inhibition at 0.02 µM ([3]; A-431, 4 h, KX01 20 nM, blue light 4 h) of 76%. For the same molecule, the inhibition at 0.04 µM ([3]; A-431, 4 h, KX01 40 nM, blue light 4 h) was 73%, the inhibition at 0.08 µM ([3]; A-431, 4 h, KX01 80 nM, blue light 4 h) was 75% and the inhibition at 0.01 µM ([3]; A-431, 6 h, KX01 10 nM, blue light 6 h) was 79%. For the same molecule, the inhibition at 0.02 µM ([3]; A-431, 6 h, KX01 20 nM, blue light 6 h) was 81%, the inhibition at 0.04 µM ([3]; A-431, 6 h, KX01 40 nM, blue light 6 h) was 81% and the inhibition at 0.08 µM ([3]; A-431, 6 h, KX01 80 nM, blue light 6 h) was 82%. For the same molecule, the “growth inhibition relative to untreated control” value ([3]; KX01 10 nM, blue light 0 h) was 0% and 11%, the “growth inhibition relative to untreated control” value ([3]; KX01 10 nM, blue light 2 h) was 44% and the “growth inhibition relative to untreated control” value ([3]; KX01 10 nM, blue light 6 h) was 77%. The “growth inhibition relative to untreated control” value ([3]; KX01 20 nM, blue light 0 h) was 80%, the “growth inhibition relative to untreated control” value ([3]; KX01 20 nM, blue light 2 h) was 83% and the “growth inhibition relative to untreated control” value ([3]; KX01 20 nM, blue light 4 h) was 69% and 74%. For the same molecule, the “growth inhibition relative to untreated control” value ([3]; KX01 20 nM, blue light 6 h) was 83%, the “growth inhibition relative to untreated control” value ([3]; KX01 40 nM, blue light 0 h) was 100% and the “growth inhibition relative to untreated control” value ([3]; KX01 40 nM, blue light 4 h) was 80%. For the same molecule, the “growth inhibition relative to untreated control” value ([3]; KX01 40 nM, blue light 6 h) was 86%, the “growth inhibition relative to untreated control” value ([3]; KX01 80 nM, blue light 2 h) was 98% and the “growth inhibition relative to untreated control” value ([3]; KX01 80 nM, blue light 4 h) was 84%. The “growth inhibition relative to untreated control” value ([3]; KX01 80 nM, blue light 6 h) was 88% and the “effect of blue light exposure with the drug on cell growth inhibition” value ([3]; for example at 10 nM KX01) was “Synergistic effects”.

Source: patent US11752156B2, “Compositions and methods for treating hyperproliferative skin disorders” (Athenex HK Innovative Limited, priority 2018, dated 2023)
